Results from patent US20260250320A1, “LIPIDATED PEPTIDE INHIBITORS OF INTERLEUKIN-23 RECEPTOR” (Janssen Pharmaceutica NV, priority 2023, published 2026).
pIC50: −log10 of the molar value. *1 amine or outer side, *2 acyl side, *3 side chain or, on linkers, in order; H or OH if unused. Where a SMILES comes first, the peptide text is derived from it. Bridges are numbered along the chain shown (N, C = ends). Side-chain parts run from the residue outwards. [ ]: non-standard residue; d: D form. The star is where a group is joined. X14 = CC(=O)N(C)CCCC[C@H](CC(=O)C1(N*)CCOCC1)C(=O)N[C@@H](CC(N)=O)C(=O)N[C@@H](Cc1cccnc1)C(=O)N(C)CC(=O)N(C)C; X41 = C[N+](C)(CCCCC*)CCOCCOCCNC(=O)COCCOCCCC(=O)CC[C@H](CC(=O)CCCCCCCCCCCCCCCCC(=O)O)C(=O)O; Me3N+(CH2)2O(CH2)2O(CH2)2CO = C[N+](C)(C)CCOCCOCCC(=O)*; Trp(7-Me) = Cc1cccc2c(C[C@H](N)C(=O)O)c[nH]c12; C22 diacid = O=C(O)CCCCCCCCCCCCCCCCCCCCC(=O)*; C18 diacid = O=C(O)CCCCCCCCCCCCCCCCC(=O)*; γGlu = O=C(O)[C@H](CCC(=O)[*:2])N[*:1]; 2Nal = N[C@@H](Cc1ccc2ccccc2c1)C(=O)O; AEF = NCCOc1ccc(C[C@H](N)C(=O)O)cc1; X2 = C[N+](C)(C)C[C@@H](CC(=O)O)N*; 3Pal = N[C@@H](Cc1cccnc1)C(=O)O; Lys(Me) = CNCCCC[C@H](N)C(=O)O; NMeK = CN[C@@H](CCCCN)C(=O)O; Pen = CC(C)(S)[C@H](N)C(=O)O; Suc = O=C(CCC(=O)[*:2])[*:1]; Thp = NC1(C(=O)O)CCOCC1; X1 = C[N+](C)(C)CCCCC*; AEEA = NCCOCCOCC(=O)O; Sar = CNCC(=O)O

Experiments:
[1] = molecular target: T1, IL-23R (Homo sapiens, UniProt Q5VWK5); assay: IL23R Reporter Assay; format: cell-based; details: HEK293 cells containing IL-23R, IL-12Rβ1 and STAT-inducible firefly luciferase reporter; 10 ng/mL IL-23 (EC90); 5 h
T1 construct: HEK293 cells containing IL-23R, IL-12Rβ1 and a firefly luciferase reporter gene driven by a STAT-inducible promoter (Promega); host or cells: HEK293
T1 sequence (Q5VWK5 24-629): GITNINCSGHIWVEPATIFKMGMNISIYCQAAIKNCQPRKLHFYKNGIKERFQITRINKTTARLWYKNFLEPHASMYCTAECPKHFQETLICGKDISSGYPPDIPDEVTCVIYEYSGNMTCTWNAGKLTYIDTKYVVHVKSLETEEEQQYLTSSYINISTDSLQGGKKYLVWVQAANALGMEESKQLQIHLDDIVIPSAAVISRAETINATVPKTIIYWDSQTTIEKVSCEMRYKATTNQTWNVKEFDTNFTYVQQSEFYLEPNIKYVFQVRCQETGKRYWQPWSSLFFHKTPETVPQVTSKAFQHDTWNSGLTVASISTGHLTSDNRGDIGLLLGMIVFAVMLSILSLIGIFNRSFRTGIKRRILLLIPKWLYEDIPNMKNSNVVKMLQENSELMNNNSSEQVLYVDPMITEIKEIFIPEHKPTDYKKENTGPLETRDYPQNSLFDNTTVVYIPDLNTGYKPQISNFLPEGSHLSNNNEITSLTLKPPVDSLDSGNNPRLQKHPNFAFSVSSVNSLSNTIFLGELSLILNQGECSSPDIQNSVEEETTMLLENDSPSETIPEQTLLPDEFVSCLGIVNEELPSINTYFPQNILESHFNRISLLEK
Summary of the method: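 HEK293 cells carrying IL-23R, IL-12Rβ1 and a STAT-driven firefly luciferase reporter (4000 cells/well) received compound, then 10 ng/mL IL-23 solution (EC90), and were incubated for 5 h at 37° C. BioGlo luminescence was normalised to IL-23 alone (0%) and 30 μM control inhibitor (100%). IC50 came from a 4-parameter Hill fit.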

[2] = test system: IL-23-stimulated phosphorylated STAT3 in peripheral blood mononuclear cells (PBMCs); assay: PBMC pSTAT3 Assay; format: cell-based; details: PBMCs from healthy donors; 30 min preincubation with peptide; IL-23 5 ng/mL for 30 min; phospho-STAT3 by MSD
Summary of the method: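 Healthy-donor PBMCs expanded 4 days on anti-CD3 with 100 ng/mL IL-1β, starved ~4 h in RPMI-0.1% BSA, preincubated 30 min with peptide, then stimulated 30 min at 37 °C with 5 ng/mL IL-23. Lysate pSTAT3 measured by MSD phospho-STAT panel; IC50 derived.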

pIC50 [1] | SMILES | pIC50 [2]
6.30 to 7.30 | CC(=O)NCCCC[C@@H]1NC(=O)[C@H](Cc2c[nH]c3c(C)cccc23)NC(=O)[C@H]([C@@H](C)O)NC(=O)[C@H](CC(N)=O)NC(=O)[C@@H](NC(=O)[C@@H](CCCNC(=N)N)NC(=O)CCC(=O)N[C@H](CC(=O)O)C[N+](C)(C)C)C(C)(C)SSC(C)(C)[C@@H](C(=O)N[C@@H](Cc2ccc(OCCN)cc2)C(=O)N[C@@H](Cc2ccc3ccccc3c2)C(=O)NC2(C(=O)N[C@@H](CCC(=O)O)C(=O)N[C@@H](CC(N)=O)C(=O)N[C@@H](Cc3cccnc3)C(=O)N(C)[C@@H](CCCCNC(=O)COCCOCCNC(=O)COCCOCCNC(=O)CC[C@H](NC(=O)CCCCCCCCCCCCCCCCC(=O)O)C(=O)O)C(N)=O)CCOCC2)NC1=O [compound 31, succiniccarn-r-Pen(3)-N-T-7MeW-K(Ac)-Pen(3)-AEF-2Nal-THP-E-N-3Pya-NMeK(PEG2PEG2gEC18OH)-CONH2] ({X2-Suc}-[dR][Pen]NT[Trp(7-Me)]K(Ac)[Pen][AEF][2Nal][Thp]EN[3Pal][NMeK]([AEEA-AEEA-γGlu-C18 diacid])-NH2; disulfide 2-7) | > 9.30
> 7.30 | CC(=O)NCCCC[C@@H]1NC(=O)[C@H](Cc2c[nH]c3c(C)cccc23)NC(=O)[C@H]([C@@H](C)O)NC(=O)[C@H](CCCCNC(=O)CCC(=O)N[C@H](CC(=O)O)C[N+](C)(C)C)NC(=O)[C@@H](NC(=O)[C@H](CCCNC(=N)N)NC(C)=O)C(C)(C)SSC(C)(C)[C@@H](C(=O)N[C@@H](Cc2ccc(OCCN)cc2)C(=O)N[C@@H](Cc2ccc3ccccc3c2)C(=O)NC2(C(=O)N[C@@H](CCC(=O)O)C(=O)N[C@@H](CC(N)=O)C(=O)N[C@@H](Cc3cccnc3)C(=O)N(C)[C@@H](CCCCNC(=O)COCCOCCNC(=O)COCCOCCNC(=O)CC[C@H](NC(=O)CCCCCCCCCCCCCCCCC(=O)O)C(=O)O)C(N)=O)CCOCC2)NC1=O [compound 30, MeCO-r-Pen(3)-K(d)-T-7MeW-K(Ac)-Pen(3)-AEF-2Nal-THP-E-N-3Pya-NMeK(PEG2PEG2gEC18OH)-CONH2] (Ac-R[Pen]K([Suc-X2])T[Trp(7-Me)]K(Ac)[Pen][AEF][2Nal][Thp]EN[3Pal][NMeK]([AEEA-AEEA-γGlu-C18 diacid])-NH2; disulfide 2-7) | > 9.30
> 7.30 | CC(=O)N(C)CCCC[C@H](CC(=O)C1(NC(=O)[C@H](Cc2ccc3ccccc3c2)NC(=O)[C@H](Cc2ccc(OCCCCC[N+](C)(C)C)cc2)NC(=O)[C@H]2NC(=O)[C@H](CCCCN(C)C(C)=O)NC(=O)[C@H](Cc3c[nH]c4c(C)cccc34)NC(=O)[C@H]([C@@H](C)O)NC(=O)[C@H](CC(=O)N(C)C)NC(=O)[C@@H](NC(=O)COCCOCCNC(=O)COCCOCCNC(=O)CC[C@H](NC(=O)CCCCCCCCCCCCCCCCCCCCC(=O)O)C(=O)O)C(C)(C)SSC2(C)C)CCOCC1)C(=O)N[C@@H](CC(N)=O)C(=O)N[C@@H](Cc1cccnc1)C(=O)N(C)CC(=O)N(C)C [compound 119, HOC20gEPEG2PEG2CO-Pen(3)-N(N(Me)2)-T-7MeW-K(NMeAc)-Pen(3)-TMAPF-2Nal-THP-K(NMeAc)-N-3Pya-Sar-CON(Me)2] ({C22 diacid-γGlu-AEEA-AEEA}-[Pen]D(NMe2)T[Trp(7-Me)][Lys(Me)](Ac)[Pen]Y(X1)[2Nal]-X14; disulfide 1-6) | > 9.30
> 7.30 | CC(=O)N(C)CCCC[C@@H]1NC(=O)[C@H](Cc2c[nH]c3c(C)cccc23)NC(=O)[C@H]([C@@H](C)O)NC(=O)[C@H](CC(=O)N(C)C)NC(=O)[C@@H](NC(=O)CCOCCOCC[N+](C)(C)C)C(C)(C)SSC(C)(C)[C@@H](C(=O)N[C@@H](Cc2ccc(OCCCCC[N+](C)(C)CCOCCOCCNC(=O)COCCOCCCC(=O)CC[C@H](CC(=O)CCCCCCCCCCCCCCCCC(=O)O)C(=O)O)cc2)C(=O)N[C@@H](Cc2ccc3ccccc3c2)C(=O)NC2(C(=O)N[C@@H](CCCCN(C)C(C)=O)C(=O)N[C@@H](CC(N)=O)C(=O)N[C@@H](Cc3cccnc3)C(=O)N(C)CC(=O)N(C)C)CCOCC2)NC1=O [compound 144, cPEG3aCO-Pen(3)-N(N(Me)2)-T-7MeW-K(NMeAc)-Pen(3)-TMAPF(PEG2PEG2gEC18OH)-2Nal-THP-K(NMeAc)-N-3Pya-Sar-CON(Me)2] ({Me3N+(CH2)2O(CH2)2O(CH2)2CO}-[Pen]D(NMe2)T[Trp(7-Me)][Lys(Me)](Ac)[Pen]Y(X41)[2Nal][Thp][Lys(Me)](Ac)N[3Pal][Sar]-NMe2; disulfide 1-6) | 8.30 to 9.30
